One assay has as its system GM03665 cells. The experiment in a line: RSL3 Toxicity Assay (RSL3 Assay). The assay is classed as cell-based, human. The settings on record: for EC50: Homo sapiens, GM03665 cells, RSL3 2 μM, 24 hours, MTT. As for the experimental part:
Example 19: RSL3 Toxicity Assay (RSL3 Assay)
In brief, GM03665 cells (Coriell Institute) were seeded in 96-well plates (Sarstedt) in DMEM cell culture media containing 10% Fetal Bovine serum and 1% Penicillin-Streptomycin (Pen-Strep) antibiotic mix at the amount of 2×10^4/mL (100 μL or 2×10^3 cells per well). Cells were left to rest overnight at 37° C. in a humidified atmosphere with 5% CO2 to allow attachment of the cells to the culture plate. Test compounds were prepared as DMSO stocks (10 mM) and were serially diluted in cell culture media to obtain 2× working solutions. Cell media was discarded and replaced by 50 μL of test compound solutions or cell media with vehicle for control wells. Within 15 minutes, 2× working solution (4 μM) of 1S,3R-RSL3 (CAS #1219810-16-8, Sigma-Aldrich) (diluted from 5 mM DMSO stock in cell culture media) was added. Final reaction volume was 100 μL and final DMSO concentration in reaction was kept below 0.2% (v/v) and equal in all wells. Final RSL3 concentration was 2 μM and test compound final concentrations in reaction were up to 1000 nM. After 24 hours of incubation cell viability was assessed by MTT test. MTT (Sigma-Aldrich) solution 1 mg/mL in 1×PBS (pH=7,4) was prepared 1 hour before the assay and filtered through Filtropur S 0.2 filters (Sarstedt). Cell media with test compounds was discarded and 100 μL of MTT solution was added to cells. The plates were incubated for 2 hours at +37° C. Thereafter, the MTT solution was removed and 100 μL of isopropanol was added to dissolve sediment. Absorption at 570 and 650 nm was measured using Hidex Sense microplate reader.

Assay [1] deals with frataxin deficient fibroblasts (GM03665). In words: Frataxin Deficient Fibroblast Viability Assay (BSO Assay). As to conditions: Homo sapiens, 48 h.
In another assay the test system is Nrf-2. The experiment in a line: Nrf-2 Activation Assay (Nrf-2 Assay). Type of assay: cell-based, human. As to conditions: Table 7; GM03665 fibroblasts, 1 μM, 24 hours, qPCR of Nrf-2 responsive genes. As for the experimental part: Example 21: Nrf-2 Activation Assay (Nrf-2 Assay)
This assay was developed internally and was designed to determine if the novel test compounds disclosed herein active Nrf-2 and thereby promote resolution of inflammation by the mechanism believed to be responsible for the activity of omaveloxolone.
Briefly, GM03665 Friedreich Ataxia patient fibroblasts were grown in 12 Well Plates (TC Cell+F) (Sarstedt, Nümbrecht Germany), at a density of 12×10^4 cells/per well in DMEM/F12 (Gibco, ThermoFisher Scientific, Waltham, Mass., USA) cell media supplemented with 10% FBS and 1% Pen/Strep. Cells were left to rest overnight at 37° C. in a humidified atmosphere with 5% CO2 to allow attachment of the cells to the culture plate. Before continuing assay visual inspection of each well was done by light microscopy to detect any possible bacterial and fungal contamination. […] After incubation, cell media was removed and total RNA from the cells was isolated using E.Z.N.A.® Total RNA Kit I (Omega Bio-tek, Norcross, Ga., USA) spin columns, and first-strand cDNA synthesis was carried out using a High Capacity cDNA Reverse Transcription Kit (Applied Biosystems™, Foster City, Calif.) following the manufacturer's instructions. qPCR analysis of gene expression was performed by mixing SYBR® Green Master Mix (Applied Biosystems™) with synthesized cDNA and forward and reverse primers. […] (60 cycles), and 95° C. for 60 seconds, followed by melt curve analysis at 72-95° C., 0.3° C./sec. The relative expression levels for each gene were calculated with the ΔΔCt method and normalized to the expression of REEP5 and SNRPD3 genes.
Background: In qPCR the cycle at which signal appears reflects the starting amount.

For assay [2], the system named is HepG2 human hepatocarcinoma cells. The experiment in a line: Rotenone ATP-Assay (Complex I by-pass). The settings on record: for EC50: Homo sapiens, 1 h; for Activity in both the BSO Assay and the Rotenone ATP Assay (in words): circumvent BSO induced cell death and restore ATP production when Complex I is inhibited. Type of assay: cell-based. As for the experimental part: Example 18: Rotenone ATP-Assay
Introduction: • This assay has been adapted from Haefeli R H, Erb M, Gemperli A C, Robay D, Courdier Fruh I, et al. (2011) NQO1-Dependent Redox Cycling of Idebenone: Effects on Cellular Redox Potential and Energy Levels. PLoS ONE 6(3): e17963. HepG2 human hepatocarcinoma cells were co-incubated with the electron transport chain Complex I toxin rotenone +/−compounds of interest and the corresponding effect on ATP synthesis was measured with a bioluminescent substrate.
Assay Experimental: • In brief, HepG2 cells were plated at 25,000 cells per well in low glucose (1 gram/Liter) DMEM medium +10% fetal calf serum and incubated for 24 hours. The following day, the media was decanted and subsequently replaced with glucose free/serum free DMEM which has been supplemented with 50 micromolar rotenone and compound of interest. Serial dilutions of compound were prepared in 3× dilutions beginning at 25 micromolar. The cells were incubated for 60 minutes in a humidified tissue culture incubator. Following incubation, ATP levels were quantified via bioluminescent assay (Promega […]) and readings were captured on a standard microplate reader.
Calculations: • ATP bioluminescence is plotted versus the log of compound of interest and data were used to generate EC50 values. Curve fitting was performed using a sigmoidal dose response curve fit function (GraphPad Prism software).
Robustness of curve fit was assessed as a quality control measure, with an R squared value of at least 0.80 being required for a successful curve fit. Compounds of interest showing an increase in ATP bioluminescence relative to vehicle control were verified in an independent biological replicate of n=3 technical replicates per dose.
Discussion: • This assay is a direct measure of the ability of compounds of interest to restore ATP production under conditions of inhibition of Complex I of the mitochondrial electron transport chain. As the majority of ATP produced via the electron transport chain is thought to derive from Complex I activity, significant impairment in Complex I function has dire biological consequences. Of note, Complex I mutations are thought to drive pathophysiology in multiple mitochondrial diseases, including Leigh syndrome and Leber's Hereditary Optic Neuropathy (LHON), while diminished Complex I activity and the resultant attenuation of ATP production has been shown in neurodegenerative diseases, including Friedreich's Ataxia, Parkinson's Disease and Huntington's Disease.

Another assay deals with lipoxygenase-15 enzyme (Glycine max (Soybean) (Glycine hispida), UniProt P08170). The experiment in a line: Lipoxygenase-15 Assay (LO-15-Assay). Type of assay: biochemical. The settings on record: reduced (hydroquinone) form.
The test system of a further assay is intact HepG2 cells. In words: Rotenone Oxygraph Assay (High-Resolution Respirometry of Intact HepG2 Cells). Type of assay: cell-based, human. The settings on record: rotenone 1 μM, compound 10 μM; for Percent increase in ATP (Rotenone Oxygraph Assay), Mean: Table 4; for Percent increase in ATP (Rotenone Oxygraph Assay), Mean / Rotenone Oxygraph Assay % Increase: intact HepG2 cells; for Rotenone Oxygraph Assay % Increase: Table 7. As for the experimental part:
Example 20: Rotenone Oxygraph Assay (High-Resolution Respirometry of Intact HepG2 Cells)
The Oxygraph-2k (O2k, OROBOROS INSTRUMENTS, Austria) was used for measurements of respiration of intact cells. The respirometry was performed in Dulbecco's Modified Eagle Medium (DMEM) high glucose without supplements. All experiments were performed at 37° C.
HepG2 cells (ATCC collection code HB-8065™) were cultured in 10 cm^2 culture dishes in DMEM high glucose medium supplemented with 10% fetal bovine serum (FBS) and 100 units/mL penicillin and 100 μg/mL streptomycin until approximately 90% confluence was reached. Immediately prior to performing the respirometric assay, the cells were washed with media without FBS, trypsinized and resuspended in DMEM high glucose without FBS.
The final concentration of intact cells in the O2k-chamber was 0.5·10^6/mL. After stabilization of respiration, the Complex I inhibitor, rotenone, at 1 μM final concentration was added to inhibit electron flux via Complex I. Then, compound to be tested was added at 10 μM final concentration, and the change in respiration rate of intact cells was monitored.

Where [3] appears, read: Table 3, mean of at least three measurements, nM printed in Table 7, read-out: RSL3 Assay EC50, Mean.
[4] abbreviates: Table 7, read-out: RSL3 Assay EC50.
Setting [5] is: HepG2 cells, 50 micromolar rotenone, 60 minutes, ATP bioluminescence, read-out: EC50 Rotenone ATP Assay.
The mark [6] stands for this setting: Table 7, HepG2 cells, 50 micromolar rotenone, 60 minutes, read-out: Rotenone ATP Assay EC50.

Read-outs that look alike come from different tables or passages of the source.

On to `CC1=C(C)C(=O)C(CC[C@@](C)(O)CC/C=C(\C)CCC=C(F)F)=C(C)C1=O` [Compound L, (S,E)-2-(11,11-difluoro-3-hydroxy-3,7-dimethylundeca-6,10-dien-1-yl)-3,5,6-trimethylcyclohexa-2,5-diene-1,4-dione], for which the EC50 with GM03665 cells (setting [3]) was 41.9 nM; with GM03665 cells (setting [4]) it was 41.9 nM; in assay [1] (read-out: BSO Assay) it was 39.1 nM; in assay [1] (read-out: EC50 (nM) BSO Assay) it was less than 100 nM; in assay [2] (setting [5]), less than 1000 nM; in assay [2] (setting [6]) it was 891 nM. In addition, the “Nrf-2 Assay” value in the assay on Nrf-2 was “Inactive”. Further, the “Activity in both the BSO Assay and the Rotenone ATP Assay (in words)” value in assay [2] was “possess both activities”.
For the compound `CC1=C(C)C(=O)C(CC[C@@](C)(O)COCCC[Si](C)(C)C)=C(C)C1=O` [Compound M, (R)-2-(3-hydroxy-3-methyl-4-(3-(trimethylsilyl)propoxy)butyl)-3,5,6-trimethylcyclohexa-2,5-diene-1,4-dione], the EC50 was 41.2 nM in the assay with GM03665 cells (setting [3]); 41.2 nM in the assay with GM03665 cells (setting [4]); 61.2 nM in assay [1] (read-out: BSO Assay); 1000 to 3000 nM in assay [2] (setting [5]); 1340 nM in assay [2] (setting [6]). Besides, in the assay on GM03665 cells (protection of Friedreich's ataxia fibroblasts from RSL3), the “Activity in the RSL3 assay (in words)” value is given as “active”. The “Activity in the LO-15 assay (in words)” value on lipoxygenase-15 enzyme is recorded as “best result”. In addition, the “Nrf-2 Assay” value with Nrf-2 is listed as “Inactive”. In addition, the “Percent increase in ATP (Rotenone Oxygraph Assay), Mean” value with intact HepG2 cells is recorded as 56.6 +/− 11.3%. Also, in the assay on intact HepG2 cells, the “Rotenone Oxygraph Assay % Increase” value is reported as 56.6 +/− 11.3%.
Regarding `CC1=C(C)C(=O)C(CC[C@](C)(O)CC/C=C(\C)CC/C=C(\C)CCC=C2COC2)=C(C)C1=O` [Compound E, 2-((R,6E,10E)-3-hydroxy-3,7,11-trimethyl-14-(oxetan-3-ylidene)tetradeca-6,10-dien-1-yl)-3,5,6-trimethylcyclohexa-2,5-diene-1,4-dione], the EC50 was 73.2 nM in the assay with GM03665 cells (setting [3]); 73.2 nM in the assay on GM03665 cells (setting [4]); 65.1 nM in assay [1] (read-out: BSO Assay); less than 100 nM in assay [1] (read-out: EC50 (nM) BSO Assay); 1000 to 3000 nM in assay [2] (setting [5]); 2810 nM in assay [2] (setting [6]). Besides, on lipoxygenase-15 enzyme, the “Activity in the LO-15 assay (in words)” value was “outside of the range of the assay”. Further, the “Nrf-2 Assay” value in the assay on Nrf-2 is on record as “Inactive”. The “Activity in both the BSO Assay and the Rotenone ATP Assay (in words)” value in assay [2] is reported as “possess both activities”.
As to `CC(C)=CCC/C(C)=C/CC/C(C)=C/CC[C@@](C)(O)CCC1=C(C)C(=O)C(C)=C(C)C1=O` [Vatiquinone, reference compound], the EC50 is 56 nM in the assay on GM03665 cells (setting [3]); 56 nM with GM03665 cells (setting [4]); 44.3 nM in assay [1] (read-out: BSO Assay); less than 100 nM in assay [1] (read-out: EC50 (nM) BSO Assay); more than 3000 nM in assay [2] (setting [5]). Besides, the “Rotenone ATP Assay EC50, nM” value in assay [2] (Table 7, HepG2 cells, 50 micromolar rotenone, 60 minutes) is “Inactive”. In addition, in the assay on intact HepG2 cells, the “Percent increase in ATP (Rotenone Oxygraph Assay), Mean” value is on record as “Inactive”. In addition, in the assay with intact HepG2 cells, the “Rotenone Oxygraph Assay % Increase” value was “Inactive”. Moreover, the “Activity in the Rotenone Oxygraph assay, Complex I by-pass (in words)” value in the assay with intact HepG2 cells is “inactive”.
